pIC50: −log10 of the molar value. Like-named read-outs stand apart in the source and are kept apart here.
Experiments:
[1] = system: CAL-120, human breast adenocarcinoma cells; experiment: Proliferation assay CAL-120 (crystal violet, 4 days); type: cell-based; details: CAL-120 cells, median, read-out: Prolif-CAL-120, IC50-[mol/l] (median)
Procedure, shortened: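 Growth was measured by crystal violet staining after cells had been treated with compounds (0.01-10 µmol/L, 0.1% DMSO) for 4 days, beginning 24 h after seeding. Values were normalized to a zero-point plate and to untreated controls, and IC50 values were derived by a four-parameter fit.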

[2] = system: BRCA1 mRNA expression in MDA-MB-231 cells; experiment: qRT-PCR assay: BRCA1 mRNA expression in MDA-MB-231; type: cell-based, human; details: Homo sapiens, MDA-MB-231, Inhibition of BRCA1 mRNA expression in MDA-MB-231 cells; median; read-out: RTqPCR-MDA-MB-231, IC50, BRCA1 (median)
Procedure, shortened: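 First, cells are plated at 200,000 per well and allowed 24 h. Second, test substances are applied continuously for a further 24 h. Finally, RNA is isolated, 600 ng is converted to cDNA, and qPCR quantifies the transcript relative to GAPDH.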

[3] = target: T1, CYCLIN K (nuclear staining in CAL-120 cells) (Homo sapiens, UniProt O75909); experiment: CYCLIN K nuclear protein level: immunofluorescence high content analysis (CAL-120); type: cell-based; details: 24 h, 50% reduction of nuclear CCNK staining intensity, median, read-out: CYCLIN K degradation IF, DC50-[mol/l] (median)
T1 construct: endogenous in cells; host or cells: CAL-120 human breast cancer cells (DSMZ ACC 459)
Procedure, shortened: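 Readout is automated confocal image analysis of nuclear cyclin K immunofluorescence (Hoechst nuclei) after PFA fixation. Cells were CAL-120, exposed to compound dose-response 24 h at 37 °C; values are DC50 for halving nuclear CCNK signal relative to DMSO and control wells.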

T1 sequence (O75909 whole entry): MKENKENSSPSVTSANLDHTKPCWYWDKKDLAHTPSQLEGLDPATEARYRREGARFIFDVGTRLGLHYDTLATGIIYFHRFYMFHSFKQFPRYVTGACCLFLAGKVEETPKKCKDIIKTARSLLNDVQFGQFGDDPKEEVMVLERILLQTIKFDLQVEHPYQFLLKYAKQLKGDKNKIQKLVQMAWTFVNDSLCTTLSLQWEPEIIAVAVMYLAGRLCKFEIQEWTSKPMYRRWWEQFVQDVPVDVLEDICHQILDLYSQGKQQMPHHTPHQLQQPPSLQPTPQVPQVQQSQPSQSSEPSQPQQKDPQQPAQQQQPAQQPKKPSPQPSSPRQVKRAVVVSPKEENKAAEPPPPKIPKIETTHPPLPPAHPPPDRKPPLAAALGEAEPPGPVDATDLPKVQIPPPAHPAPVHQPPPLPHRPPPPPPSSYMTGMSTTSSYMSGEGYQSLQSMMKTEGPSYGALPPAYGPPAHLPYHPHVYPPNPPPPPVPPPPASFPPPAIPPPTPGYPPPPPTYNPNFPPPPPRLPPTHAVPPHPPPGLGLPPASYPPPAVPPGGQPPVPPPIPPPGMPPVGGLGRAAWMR
T1 sequence (Q9NYV4 whole entry partner): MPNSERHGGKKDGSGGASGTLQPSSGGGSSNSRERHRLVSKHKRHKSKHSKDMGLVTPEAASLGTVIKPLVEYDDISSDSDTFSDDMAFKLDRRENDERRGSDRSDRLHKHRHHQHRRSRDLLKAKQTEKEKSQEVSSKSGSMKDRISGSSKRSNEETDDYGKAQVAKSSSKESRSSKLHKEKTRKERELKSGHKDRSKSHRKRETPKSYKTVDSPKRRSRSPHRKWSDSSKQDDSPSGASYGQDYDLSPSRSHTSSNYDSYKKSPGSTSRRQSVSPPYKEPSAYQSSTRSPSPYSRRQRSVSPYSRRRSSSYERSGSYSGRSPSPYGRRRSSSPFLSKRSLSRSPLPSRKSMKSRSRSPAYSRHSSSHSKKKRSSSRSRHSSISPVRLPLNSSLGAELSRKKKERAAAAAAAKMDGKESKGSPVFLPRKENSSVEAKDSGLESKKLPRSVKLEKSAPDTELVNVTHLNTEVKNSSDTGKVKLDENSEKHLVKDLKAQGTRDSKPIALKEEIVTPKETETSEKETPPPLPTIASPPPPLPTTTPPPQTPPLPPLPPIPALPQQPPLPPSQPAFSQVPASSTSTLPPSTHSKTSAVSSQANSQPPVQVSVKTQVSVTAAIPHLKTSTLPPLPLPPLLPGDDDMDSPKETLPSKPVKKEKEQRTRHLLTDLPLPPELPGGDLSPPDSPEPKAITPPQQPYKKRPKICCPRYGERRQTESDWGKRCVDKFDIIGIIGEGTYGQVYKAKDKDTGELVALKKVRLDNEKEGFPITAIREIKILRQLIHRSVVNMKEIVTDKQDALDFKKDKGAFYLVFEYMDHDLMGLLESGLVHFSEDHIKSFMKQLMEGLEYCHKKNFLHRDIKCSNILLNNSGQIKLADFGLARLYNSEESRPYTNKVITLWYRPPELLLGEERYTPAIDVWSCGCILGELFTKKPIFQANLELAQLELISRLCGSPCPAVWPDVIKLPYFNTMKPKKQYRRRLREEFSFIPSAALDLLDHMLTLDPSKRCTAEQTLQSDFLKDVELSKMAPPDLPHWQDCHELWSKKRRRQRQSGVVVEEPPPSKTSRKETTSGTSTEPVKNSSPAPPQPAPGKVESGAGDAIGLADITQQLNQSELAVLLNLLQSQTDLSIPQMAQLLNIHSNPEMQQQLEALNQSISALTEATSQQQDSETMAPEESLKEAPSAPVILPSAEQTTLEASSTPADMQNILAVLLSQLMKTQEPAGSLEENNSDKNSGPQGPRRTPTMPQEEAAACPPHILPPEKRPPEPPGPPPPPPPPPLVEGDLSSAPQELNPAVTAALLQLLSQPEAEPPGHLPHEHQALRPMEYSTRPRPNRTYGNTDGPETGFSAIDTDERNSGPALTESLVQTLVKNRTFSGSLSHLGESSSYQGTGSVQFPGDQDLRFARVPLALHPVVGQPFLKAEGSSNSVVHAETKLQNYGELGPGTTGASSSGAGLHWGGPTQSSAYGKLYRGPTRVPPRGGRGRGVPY

| SMILES | pIC50 ([1]; Homo sapiens, CAL-120, 96 h) | pIC50 [2] | DC50 [3] [µM] | pIC50 [1] |
| --- | --- | --- | --- | --- |
| NC1CCN(c2nc(NCc3nc4ccccc4[nH]3)n3ncc(Br)c3n2)CC1 [Example 256, 2-(4-aminopiperidin-1-yl)-N-[(1H-benzimidazol-2-yl)methyl]-8-bromopyrazolo[1,5-a][1,3,5]triazin-4-amine] | 8.00 | 8.19 | 0.000326 | – |
| NC1(C(F)(F)F)CCN(c2nc(NCc3nc4ccccc4[nH]3)n3ncc(Br)c3n2)C1 (stereo not drawn) [Example 266, 2-[3-amino-3-(trifluoromethyl)pyrrolidin-1-yl]-N-(1H-benzimidazol-2-ylmethyl)-8-bromo-pyrazolo[1,5-a][1,3,5]triazin-4-amine] | 6.99 | – | – | – |
| Fc1ccc2[nH]c(CNc3nc(N4CCOCC4)nc4c(C5CCCC5)cnn34)nc2c1F [Example 262, 8-cyclopentyl-N-[(4,5-difluoro-1H-benzimidazol-2-yl)methyl]-2-(morpholin-4-yl)pyrazolo[1,5-a][1,3,5]triazin-4-amine] | 7.22 | – | 0.00194 | – |
| N[C@H]1CN(c2nc(NCc3nc4ccccc4[nH]3)n3ncc(Br)c3n2)CC12CC2 [Example 259, 2-[(7R)-7-amino-5-azaspiro[2.4]heptan-5-yl]-N-[(1H-benzimidazol-2-yl)methyl]-8-bromopyrazolo[1,5-a][1,3,5]triazin-4-amine] | 7.92 | 7.94 | – | – |
| c1ccc2[nH]c(CNc3nc(N4C[C@@H]5CCCN[C@@H]5C4)nc4c(C5CC5)cnn34)nc2c1 [Example 249, N-[(1H-benzimidazol-2-yl)methyl]-8-cyclopropyl-2-[(4aS,7aS)-octahydro-6H-pyrrolo[3,4-b]pyridin-6-yl]pyrazolo[1,5-a][1,3,5]triazin-4-amine] | 8.37 | 8.24 | – | – |
| Brc1cnn2c(NCc3ncc(-c4ccccc4)[nH]3)nc(N3CCOCC3)nc12 [Example 23, 8-bromo-2-(morpholin-4-yl)-N-[(5-phenyl-1H-imidazol-2-yl)methyl]pyrazolo[1,5-a][1,3,5]triazin-4-amine] | – | 8.42 | 0.00102 | – |
| Brc1cnn2c(NCc3nc4ccncc4[nH]3)nc(N3CCOCC3)nc12 [Example 22, 8-bromo-N-[(3H-imidazo[4,5-c]pyridin-2-yl)methyl]-2-(morpholin-4-yl)pyrazolo[1,5-a][1,3,5]triazin-4-amine] | – | 6.88 | – | – |
| Brc1cnn2c(NCc3nc4ccccc4[nH]3)nc(N3C[C@H]4CC[C@@H]3CN4)nc12 (single isomer, unassigned) [Example 316, N-[(1H-benzimidazol-2-yl)methyl]-8-bromo-2-{[1R or S-(1R*4R*)]-2,5-diazabicyclo[2.2.2]octan-2-yl}pyrazolo[1,5-a][1,3,5]triazin-4-amine] | 8.15 | 7.91 | – | – |
| Brc1cnn2c(NCc3nc4c([nH]3)CCCC4)nc(N3CCOCC3)nc12 [Example 21, 8-bromo-2-(morpholin-4-yl)-N-[(4,5,6,7-tetrahydro-1H-benzimidazol-2-yl)methyl]pyrazolo[1,5-a][1,3,5]triazin-4-amine] | 6.79 | 7.50 | – | – |
| FC(F)(F)Cc1cnn2c(NCc3nc4ccccc4[nH]3)nc(N3CCOCC3)nc12.O=CO [Example 265, formic acid-N-[(1H-benzimidazol-2-yl)methyl]-2-(morpholin-4-yl)-8-(2,2,2-trifluoroethyl)pyrazolo[1,5-a][1,3,5]triazin-4-amine (1/1)] | 7.45 | – | 0.00314 | – |
| c1ccc2[nH]c(CNc3nc(N4CCOCC4)nc4c(C5CCCC5)cnn34)nc2c1 [Example 244, N-[(1H-benzimidazol-2-yl)methyl]-8-cyclopentyl-2-(morpholin-4-yl)pyrazolo[1,5-a][1,3,5]triazin-4-amine] | 6.66 | – | 0.0156 | – |
| CC1CN(C)CCN1c1nc(NCc2nc3ccccc3[nH]2)n2ncc(Br)c2n1 (single isomer, unassigned; enantiomer 2) [Example 261, N-(1H-benzimidazol-2-ylmethyl)-8-bromo-2-[(2R or S)-2,4-dimethylpiperazin-1-yl]pyrazolo[1,5-a][1,3,5]triazin-4-amine (Enantiomer 2)] | – | – | 0.00123 | 7.41 |
| Brc1cnn2c(NCc3nc4ccccc4[nH]3)nc(N3C[C@H]4CN[C@H]4C3)nc12.O=C(O)C(F)(F)F [Example 255, trifluoroacetic acid-N-[(1H-benzimidazol-2-yl)methyl]-8-bromo-2-[(1R,5R)-3,6-diazabicyclo[3.2.0]heptan-3-yl]pyrazolo[1,5-a][1,3,5]triazin-4-amine (1/1)] | 7.48 | – | – | – |
| NC12CC1CN(c1nc(NCc3nc4ccccc4[nH]3)n3ncc(Br)c3n1)C2 (stereo not drawn) [Example 258, 2-(1-amino-3-azabicyclo[3.1.0]hexan-3-yl)-N-(1H-benzimidazol-2-ylmethyl)-8-bromo-pyrazolo[1,5-a][1,3,5]triazin-4-amine] | 7.55 | 7.92 | – | – |

Other lines, results leading:

| pIC50 ([1]; Homo sapiens, CAL-120, 96 h) | pIC50 [2] | DC50 [3] [µM] | pIC50 [1] | SMILES |
| --- | --- | --- | --- | --- |
| 7.79 | 7.90 | 0.00103 | – | CCNC1CCN(c2nc(NCc3nc4ccccc4[nH]3)n3ncc(Br)c3n2)CC1 [Example 300] |
| 7.42 | 7.12 | 0.00215 | – | Fc1ccc2[nH]c(CNc3nc(N4CCOCC4)nc4c([C@@H]5CC5(F)F)cnn34)nc2c1 (single isomer, unassigned) [Example 315, 8-[(1R or S)-2,2-difluorocyclopropyl]-N-[(5-fluoro-1H-benzimidazol-2-yl)methyl]-2-(morpholin-4-yl)pyrazolo[1,5-a][1,3,5]triazin-4-amine] |
| 7.06 | – | 0.0124 | – | OCC1CN(c2nc(NCc3nc4ccccc4[nH]3)n3ncc(Br)c3n2)C1 [Example 304, [1-(4-{[(1H-benzimidazol-2-yl)methyl]amino}-8-bromopyrazolo[1,5-a][1,3,5]triazin-2-yl)azetidin-3-yl]methanol] |
| 7.34 | – | – | – | CC1(O)CCN(c2nc(NCc3nc4ccccc4[nH]3)n3ncc(Br)c3n2)C1 (single isomer, unassigned) [Example 282, (3R or S)-1-(4-{[(1H-benzimidazol-2-yl)methyl]amino}-8-bromopyrazolo[1,5-a][1,3,5]triazin-2-yl)-3-methylpyrrolidin-3-ol] |
| 7.51 | 8.27 | – | – | COc1cccc2[nH]c(CNc3nc(N4CCOCC4)nc4c(CC(F)(F)F)cnn34)nc12 [Example 277, N-[(4-methoxy-1H-benzimidazol-2-yl)methyl]-2-(morpholin-4-yl)-8-(2,2,2-trifluoroethyl)pyrazolo[1,5-a][1,3,5]triazin-4-amine] |
| 7.07 | – | 0.0208 | – | C[C@@]1(O)CCN(c2nc(NCc3nc4ccccc4[nH]3)n3ncc(Br)c3n2)C1 (single isomer, unassigned) [Example 281, (3R or S)-1-(4-{[(1H-benzimidazol-2-yl)methyl]amino}-8-bromopyrazolo[1,5-a][1,3,5]triazin-2-yl)-3-methylpyrrolidin-3-ol] |
| 7.13 | 7.62 | – | – | Brc1cnn2c(NCc3nc4ccccc4[nH]3)nc(NCC3CC3)nc12 [Example 284, N^4-[(1H-benzimidazol-2-yl)methyl]-8-bromo-N^2-(cyclopropylmethyl)pyrazolo[1,5-a][1,3,5]triazine-2,4-diamine] |
| 7.19 | – | – | – | CN1CCN(c2nc(NCc3nc4ccccc4[nH]3)n3ncc(Br)c3n2)C(CO)C1 (single isomer, unassigned) [Example 280, [(2R or S)-1-(4-{[(1H-benzimidazol-2-yl)methyl]amino}-8-bromopyrazolo[1,5-a][1,3,5]triazin-2-yl)-4-methylpiperazin-2-yl]methanol] |
| 6.78 | – | – | – | Fc1ccc2[nH]c(CNc3nc(N4CCOCC4)nc4c(C5CCOCC5)cnn34)nc2c1F [Example 276, N-[(4,5-difluoro-1H-benzimidazol-2-yl)methyl]-2-(morpholin-4-yl)-8-(oxan-4-yl)pyrazolo[1,5-a][1,3,5]triazin-4-amine] |
| 7.48 | 7.68 | – | – | CN(CC1CC1)c1nc(NCc2nc3ccccc3[nH]2)n2ncc(Br)c2n1 [Example 287, N^4-[(1H-benzimidazol-2-yl)methyl]-8-bromo-N^2-(cyclopropylmethyl)-N^2-methylpyrazolo[1,5-a][1,3,5]triazine-2,4-diamine] |
| 7.10 | – | 0.00346 | – | CC(C)CNc1nc(NCc2nc3ccccc3[nH]2)n2ncc(Br)c2n1 [Example 285, N^4-[(1H-benzimidazol-2-yl)methyl]-8-bromo-N^2-(2-methylpropyl)pyrazolo[1,5-a][1,3,5]triazine-2,4-diamine] |
| 7.16 | – | – | – | Brc1cnn2c(NCc3nc4ccccc4[nH]3)nc(N3C[C@@H]4CN[C@@H]4C3)nc12.O=C(O)C(F)(F)F [Example 267, trifluoroacetic acid-N-[(1H-benzimidazol-2-yl)methyl]-8-bromo-2-[(1S,5S)-3,6-diazabicyclo[3.2.0]heptan-3-yl]pyrazolo[1,5-a][1,3,5]triazin-4-amine (1/1)] |

Source: patent publication US20230117034A1, “PYRAZOLOTRIAZINES” (Bayer Aktiengesellschaft, priority 2019, published 2023)
